Test results taken from the supplement of paper PMC10307832.

Legend:
Assay in all cases: relative viability (nuclei count vs DMSO), 5 days (fraction); higher = more cells survive
NCI-H1793 = system: NCI-H1793
How it was run: (§1)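 Dosing by pin tool came one day after lung cancer cell lines were seeded in 1536-well plates, using either one drug or a fixed anchor-drug dose plus five library-drug doses (not always all listed) in √10 steps. After 5 days, nuclei were counted on 4× images. Relative viability is treated-well nuclei count divided by vehicle-well nuclei count, and values are medians of duplicate plates.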

NCI-H1395 = system: NCI-H1395
How it was run: as §1

NCI-H2085 = system: NCI-H2085
How it was run: as §1

NCI-H2023 = system: NCI-H2023
How it was run: as §1

H3255 = system: H3255
How it was run: as §1

EPLC-272H = system: EPLC-272H
How it was run: as §1

NCI-H650 = system: NCI-H650
How it was run: as §1

NCI-H1651 = system: NCI-H1651
How it was run: as §1

LU99A = system: LU99A
How it was run: as §1

NCI-H2087 = system: NCI-H2087
How it was run: as §1

LCLC-103H = system: LCLC-103H
How it was run: as §1

NCI-H1944 = system: NCI-H1944
How it was run: as §1

SK-MES-1 = system: SK-MES-1
How it was run: as §1

HCC-44 = system: HCC-44
How it was run: as §1

NCI-H2405 = system: NCI-H2405
How it was run: as §1

EMC-BAC-2 = system: EMC-BAC-2
How it was run: as §1

NCI-H838 = system: NCI-H838
How it was run: as §1

ChaGo-K-1 = system: ChaGo-K-1
How it was run: as §1

NCI-H520 = system: NCI-H520
How it was run: as §1

COR-L23 = system: COR-L23
How it was run: as §1

HCC-827 = system: HCC-827
How it was run: as §1

CC(=O)O[C@@]12CO[C@@H]1C[C@H](O)[C@@]1(C)C(=O)[C@H](O)C3=C(C)[C@@H](OC(=O)[C@H](O)[C@@H](NC(=O)OC(C)(C)C)c4ccccc4)C[C@@](O)([C@@H](OC(=O)c4ccccc4)[C@H]21)C3(C)C [Docetaxel] + O=C(CCCCCCC(=O)Nc1ccccc1)NO [Vorinostat] (partner 1 µM)
relative viability (NCI-H1793; first compound 0.0002 µM): 0.724
relative viability (NCI-H1793; first compound 0.000632 µM): 0.479
relative viability (NCI-H1793; first compound 0.002 µM): 0.199
relative viability (NCI-H1793; first compound 0.006325 µM): 0.26
relative viability (NCI-H1793; first compound 0.02 µM): 0.163
relative viability (NCI-H1395; first compound 0.0002 µM): 0.672
relative viability (NCI-H1395; first compound 0.000632 µM): 0.601
relative viability (NCI-H1395; first compound 0.002 µM): 0.462
relative viability (NCI-H1395; first compound 0.006325 µM): 0.375
relative viability (NCI-H1395; first compound 0.02 µM): 0.239
relative viability (NCI-H2085; first compound 0.0002 µM): 0.82
relative viability (NCI-H2085; first compound 0.000632 µM): 0.734
relative viability (NCI-H2085; first compound 0.002 µM): 0.736
relative viability (NCI-H2085; first compound 0.006325 µM): 0.355
relative viability (NCI-H2085; first compound 0.02 µM): 0.488
relative viability (NCI-H2023; first compound 0.0002 µM): 0.466
relative viability (NCI-H2023; first compound 0.002 µM): 0.101
relative viability (NCI-H2023; first compound 0.006325 µM): 0.0951
relative viability (NCI-H2023; first compound 0.02 µM): 0.0577
relative viability (H3255; first compound 0.0002 µM): 0.785
relative viability (H3255; first compound 0.000632 µM): 0.826
relative viability (H3255; first compound 0.002 µM): 0.629
relative viability (H3255; first compound 0.006325 µM): 0.345
relative viability (H3255; first compound 0.02 µM): 0.346
relative viability (EPLC-272H; first compound 0.0002 µM): 0.532
relative viability (EPLC-272H; first compound 0.000632 µM): 0.162
relative viability (EPLC-272H; first compound 0.002 µM): 0.0568
relative viability (EPLC-272H; first compound 0.006325 µM): 0.0865
relative viability (EPLC-272H; first compound 0.02 µM): 0.0652
relative viability (NCI-H650; first compound 0.0002 µM): 0.389
relative viability (NCI-H650; first compound 0.000632 µM): 0.326
relative viability (NCI-H650; first compound 0.002 µM): 0.262
relative viability (NCI-H650; first compound 0.006325 µM): 0.2
relative viability (NCI-H650; first compound 0.02 µM): 0.171
relative viability (NCI-H1651; first compound 0.0002 µM): 0.41
relative viability (NCI-H1651; first compound 0.000632 µM): 0.582
relative viability (NCI-H1651; first compound 0.002 µM): 0.463
relative viability (NCI-H1651; first compound 0.006325 µM): 0.159
relative viability (LU99A; first compound 0.0002 µM): 0.529
relative viability (LU99A; first compound 0.000632 µM): 0.373
relative viability (LU99A; first compound 0.002 µM): 0.278
relative viability (LU99A; first compound 0.006325 µM): 0.269
relative viability (LU99A; first compound 0.02 µM): 0.173
relative viability (NCI-H2087; first compound 0.0002 µM): 0.663
relative viability (NCI-H2087; first compound 0.000632 µM): 0.203
relative viability (NCI-H2087; first compound 0.002 µM): 0.139
relative viability (NCI-H2087; first compound 0.006325 µM): 0.115
relative viability (NCI-H2087; first compound 0.02 µM): 0.103
relative viability (LCLC-103H; first compound 0.0002 µM): 0.703
relative viability (LCLC-103H; first compound 0.000632 µM): 0.695
relative viability (LCLC-103H; first compound 0.002 µM): 0.513
relative viability (LCLC-103H; first compound 0.006325 µM): 0.604
relative viability (LCLC-103H; first compound 0.02 µM): 0.47
relative viability (NCI-H1944; first compound 0.0002 µM): 0.604
relative viability (NCI-H1944; first compound 0.000632 µM): 0.538
relative viability (NCI-H1944; first compound 0.002 µM): 0.423
relative viability (NCI-H1944; first compound 0.006325 µM): 0.223
relative viability (NCI-H1944; first compound 0.02 µM): 0.172
relative viability (SK-MES-1; first compound 0.0002 µM): 1.15
relative viability (SK-MES-1; first compound 0.000632 µM): 0.925
relative viability (SK-MES-1; first compound 0.002 µM): 0.695
relative viability (SK-MES-1; first compound 0.006325 µM): 0.267
relative viability (SK-MES-1; first compound 0.02 µM): 0.212
relative viability (HCC-44; first compound 0.0002 µM): 0.994
relative viability (HCC-44; first compound 0.000632 µM): 1.14
relative viability (HCC-44; first compound 0.002 µM): 0.861
relative viability (HCC-44; first compound 0.006325 µM): 0.515
relative viability (HCC-44; first compound 0.02 µM): 0.493
relative viability (NCI-H2405; first compound 0.0002 µM): 0.839
relative viability (NCI-H2405; first compound 0.000632 µM): 0.567
relative viability (NCI-H2405; first compound 0.002 µM): 0.546
relative viability (NCI-H2405; first compound 0.006325 µM): 0.394
relative viability (NCI-H2405; first compound 0.02 µM): 0.335
relative viability (EMC-BAC-2; first compound 0.0002 µM): 0.388
relative viability (EMC-BAC-2; first compound 0.000632 µM): 0.293
relative viability (EMC-BAC-2; first compound 0.002 µM): 0.262
relative viability (EMC-BAC-2; first compound 0.006325 µM): 0.224
relative viability (EMC-BAC-2; first compound 0.02 µM): 0.171
relative viability (NCI-H838; first compound 0.0002 µM): 0.623
relative viability (NCI-H838; first compound 0.000632 µM): 0.385
relative viability (NCI-H838; first compound 0.002 µM): 0.328
relative viability (NCI-H838; first compound 0.006325 µM): 0.208
relative viability (NCI-H838; first compound 0.02 µM): 0.16
relative viability (ChaGo-K-1; first compound 0.0002 µM): 0.733
relative viability (ChaGo-K-1; first compound 0.000632 µM): 0.591
relative viability (ChaGo-K-1; first compound 0.002 µM): 0.335
relative viability (ChaGo-K-1; first compound 0.006325 µM): 0.282
relative viability (ChaGo-K-1; first compound 0.02 µM): 0.193
relative viability (NCI-H520; first compound 0.0002 µM): 0.714
relative viability (NCI-H520; first compound 0.000632 µM): 0.463
relative viability (NCI-H520; first compound 0.002 µM): 0.281
relative viability (NCI-H520; first compound 0.006325 µM): 0.187
relative viability (NCI-H520; first compound 0.02 µM): 0.158
relative viability (COR-L23; first compound 0.0002 µM): 0.492
relative viability (COR-L23; first compound 0.000632 µM): 0.248
relative viability (COR-L23; first compound 0.002 µM): 0.151
relative viability (COR-L23; first compound 0.006325 µM): 0.154
relative viability (COR-L23; first compound 0.02 µM): 0.0838
relative viability (HCC-827; first compound 0.0002 µM): 0.367
relative viability (HCC-827; first compound 0.000632 µM): 0.903
relative viability (HCC-827; first compound 0.002 µM): 0.528
relative viability (HCC-827; first compound 0.006325 µM): 0.279
relative viability (HCC-827; first compound 0.02 µM): 0.238
